Source: publication PMC12806164, “Epithelial Heparan Sulfate Promotes Staphylococcus aureus Corneal Infection by Inhibiting Cathelicidins” (Proteoglycan research, 2025)
Like-named read-outs stand apart in the source and are kept apart here.

How the values were obtained:
CRAMP [1] = test: Inhibition by glycosaminoglycans of S. aureus killing by CRAMP; type: cell-based, mouse; conditions: 0.5 μM CRAMP; for Inhibition of S. aureus killing by CRAMP: 5 μg/mL glycosaminoglycan, ~500 cfu USA300, phosphate buffer pH 7.4, 2 h at 37°C, n = 6
Description: (§1) Samples were plated onto TSA plates, and viable bacteria (cfu) were counted the following day. Data are shown as % bacterial killing, where killing activity in the presence of cathelicidin only represents 100% (n = 6, *p < 0.05, ****p < 0.0001, one-way ANOVA, multiple comparisons).
(§2) (A) Schematics of HS/HP structure. […] (F) BaclightGreen-labeled S. aureus (~400 cfu) was incubated with 0.5 μM CRAMP without or with 5 μg/mL HP, NDS-HP, 2ODS-HP, 6ODS-HP, H, NS-H, or NS2OS-H for 30 min at room temperature. Bacteria were washed, incubated with 10 μg/mL propidium iodide for 15 min at 4°C, and live (green) and dead (red) bacteria were visualized by fluorescence microscopy.
(§3) Late log phase S. aureus USA300 was washed with phosphate buffer (8.2 mM Na2HPO4, 1.8 mM KH2PO4, pH 7.4) and approximately 500 cfu were incubated with cathelicidins with or without excess GAGs for 2 h at 37°C as indicated. Viable bacteria were enumerated by plating onto TSA plates and counting colonies the following day. Results are shown as % bacterial killing, where 100% killing represents data derived from the group of bacteria incubated with cathelicidins only.
(§4) Figure S1. A) CRAMP expression was measured in uninfected Wt corneas or Wt corneas isolated at 4 h post-S. aureus USA300 infection. Briefly, eyes were enucleated, corneas were dissected, and isolated corneas were incubated with 10 mg/ml dispase II overnight at 4°C to peel off the corneal epithelium. Total RNA was purified from the corneal epithelium, and 1 ng of total RNA was analyzed by qRT-PCR for CRAMP or β-actin expression (n = 3, **p < 0.01). […] Bacterial killing was measured by plating serial dilutions onto TSA plates and counting colonies the following day. Results are shown as % bacterial survival (n = 4). Figure S2. […] Bacterial killing (%) was enumerated by plating serial dilutions onto TSA plates and counting colonies the following day (n = 5). B) Effects of pre-incubating S. aureus with glycosaminoglycans on bacterial killing by cathelicidins were examined by incubating 500 cfu of USA300 without or with 5 μg/ml HS, HP, DS, or CS for 30 min at 37°C. Bacteria were washed three times with buffer, incubated with 0.5 μM CRAMP for 2 h at 37°C, and % bacterial killing was determined by plating serial dilutions of samples (n = 4). Figure S3. S. aureus USA300 stained with BaclightGreen was incubated with 0.5 μM CRAMP in the absence or presence of 5 μg/ml HP, NDS-HP, 2ODS-HP, 6ODS-HP, H, NS-H, or NS2OS-H for 30 min at room temperature. Bacteria were washed and incubated with 10 μg/ml propidium iodide for 15 min on ice. Images were captured with a fluorescence microscope (Zeiss Axiovert 40 CFL). Quantification of % dead bacteria (out of total bacteria in field) is shown at the bottom. Figure S4. Alexa 647-conjugated CRAMP (0.5 μM) was incubated with fixed S. aureus USA300 without or with 5 μg/ml of the indicated glycosaminoglycans and chemically-desulfated HP compounds for 1 h at room temperature. S. aureus-associated CRAMP fluorescence was analyzed by flow cytometry. Representative FACS density plots are shown where heparan compounds containing 2-O-sulfated motifs decreased Alexa CRAMP binding by over 79% compared to the control (No GAG), except for NDS-HP where the reduction was approximately 65%. Fig. S5. Relative mRNA levels of A) Ndst1 and B) Sdc1 in the corneal epithelium of Hs2st^fl/fl, Krt12Cre, and Hs2st^fl/fl/Krt12Cre mice (n = 3).

LL-37 = test: Inhibition by glycosaminoglycans of S. aureus killing by LL-37; type: cell-based, human; conditions: 5 μg/mL glycosaminoglycan, 1 μM LL-37, ~500 cfu USA300, phosphate buffer pH 7.4, 2 h at 37°C, n = 6
Description: as §1, §2, §3

CAP-18 = test: Inhibition by glycosaminoglycans of S. aureus killing by CAP-18; type: cell-based, rabbit; conditions: 5 μg/mL glycosaminoglycan, 0.5 μM CAP-18, ~500 cfu USA300, phosphate buffer pH 7.4, 2 h at 37°C, n = 6
Description: as §1, §2, §3

SMAP-29 = test: Inhibition by glycosaminoglycans of S. aureus killing by SMAP-29; type: cell-based, sheep; conditions: 5 μg/mL glycosaminoglycan, 0.5 μM SMAP-29, ~500 cfu USA300, phosphate buffer pH 7.4, 2 h at 37°C, n = 6
Description: as §1, §2, §3

CRAMP [2] = test: Alexa 647-CRAMP binding to Affi-Gel HP beads, competition by HP compounds (flow cytometry); set-up: species or system mouse; conditions: 20 μg/mL competitor, 0.5 μM Alexa 647-conjugated CRAMP, 1 h at room temperature, n = 4
Description: FIGURE 4 | 2-O-sulfated heparan compounds directly bind to CRAMP with high affinity. Alexa 647-conjugated CRAMP (0.5 μM) was incubated with Affi-Gel HP beads without or with 20 μg/mL of HP, NDS-HP, 2ODS-HP, or 6ODS-HP for 1 h at room temperature. CRAMP fluorescence associated with Affi-Gel HP beads was analyzed by flow cytometry. Results are shown as (A) % CRAMP binding and (B) mean fluorescence intensity (MFI) of CRAMP binding (n = 4, ***p < 0.001, ****p < 0.0001). ITC analyses for CRAMP binding to HP were performed at 25°C using a MicroCal iTC 200 titration calorimetry. The fitted heat curves of titrating CRAMP binding to (C) HP and (D) 2ODS-HP are shown.
Affi-Gel HP beads were washed and resuspended in PBS. Affi-Gel HP beads (20 μL) were incubated with 0.5 μM Alexa 647-labeled CRAMP without or with 20 μg/mL HP, chemically desulfated HP, or chemoenzymatically sulfated H for 1 h at room temperature. Affi-Gel HP beads were washed with PBS, and the Alexa 647-labeled CRAMP bound to them was assessed by flow cytometry.

S. aureus USA300 [3] = conditions: 500 cfu S. aureus USA300, 2 h at 37°C, cfu on TSA plates, n = 4
Description: Bacterial killing was measured by plating serial dilutions onto TSA plates and counting colonies the following day. Results are shown as % bacterial survival (n = 4). […] Bacterial killing (%) was enumerated by plating serial dilutions onto TSA plates and counting colonies the following day (n = 5). B) Effects of pre-incubating S. aureus with glycosaminoglycans on bacterial killing by cathelicidins were examined by incubating 500 cfu of USA300 without or with 5 μg/ml HS, HP, DS, or CS for 30 min at 37°C. Bacteria were washed three times with buffer, incubated with 0.5 μM CRAMP for 2 h at 37°C, and % bacterial killing was determined by plating serial dilutions of samples (n = 4). […] Images were captured with a fluorescence microscope (Zeiss Axiovert 40 CFL). Quantification of % dead bacteria (out of total bacteria in field) is shown at the bottom. […] S. aureus-associated CRAMP fluorescence was analyzed by flow cytometry.

[4] = ref 44 (LL-37), ref 39 (CAP-18), ref 42 (SMAP-29); cited from earlier work
Description: Next, we examined the dose response to cathelicidins from different species, which can have relatively large differences in primary sequence.

CRAMP [5] = test: Alexa 647-CRAMP binding to fixed S. aureus, inhibition by glycosaminoglycans (flow cytometry); set-up: species or system mouse; conditions: 0.5 μM Alexa 647-conjugated CRAMP; for Reduction of proportion of CRAMP-bound bacteria (Alexa CRAMP binding, FACS density plots) compared to No GAG: 5 μg/ml glycosaminoglycan, fixed S. aureus USA300, 1 h at room temperature, representative plots; for Decrease of MFI of Alexa-labeled CRAMP binding to S. aureus compared to control: 5 μg/mL glycosaminoglycan, 2% paraformaldehyde-fixed S. aureus USA300, 1 h at room temperature, n = 3
Description: Alexa 647-conjugated CRAMP (0.5 μM) was incubated with 2% paraformaldehyde-fixed Staphylococcus aureus USA300 without or with 5 μg/mL HP, HS, CS, DS, NDS-HP, 6ODS-HP, or 2ODS-HP for 1 h at room temperature. S. aureus-associated CRAMP fluorescence was analyzed by flow cytometry. Results are shown as % Alexa CRAMP binding (n = 3, ****p < 0.0001).
Alexa 647 fluorophore was conjugated to CRAMP using the Lightning-Link Rapid FluoProbes647H labeling kit following the manufacturer’s instructions. S. aureus USA300 fixed in 2% paraformaldehyde for 20 min was resuspended in 20 μL of phosphate buffer and incubated with 0.5 μM of Alexa 647-labeled CRAMP for 30 min at room temperature without or with glycosaminoglycans. Unbound Alexa 647-labeled CRAMP was removed by washing with phosphate buffer, and Alexa 647-labeled CRAMP bound to bacteria was assessed by flow cytometry.
as §4

S. aureus USA300 [6] = test: Pre-incubation of S. aureus with glycosaminoglycans, washing, then killing by cathelicidin; type: cell-based, Staphylococcus aureus; conditions: 5 μg/ml glycosaminoglycan pre-incubated with 500 cfu USA300 30 min at 37°C, washed three times, then 0.5 μM CRAMP 2 h at 37°C, n = 4
Description: Figure S1. A) CRAMP expression was measured in uninfected Wt corneas or Wt corneas isolated at 4 h post-S. aureus USA300 infection. Briefly, eyes were enucleated, corneas were dissected, and isolated corneas were incubated with 10 mg/ml dispase II overnight at 4°C to peel off the corneal epithelium. Total RNA was purified from the corneal epithelium, and 1 ng of total RNA was analyzed by qRT-PCR for CRAMP or β-actin expression (n = 3, **p < 0.01). […] Bacterial killing was measured by plating serial dilutions onto TSA plates and counting colonies the following day. Results are shown as % bacterial survival (n = 4). Figure S2. […] Bacterial killing (%) was enumerated by plating serial dilutions onto TSA plates and counting colonies the following day (n = 5). B) Effects of pre-incubating S. aureus with glycosaminoglycans on bacterial killing by cathelicidins were examined by incubating 500 cfu of USA300 without or with 5 μg/ml HS, HP, DS, or CS for 30 min at 37°C. Bacteria were washed three times with buffer, incubated with 0.5 μM CRAMP for 2 h at 37°C, and % bacterial killing was determined by plating serial dilutions of samples (n = 4). Figure S3. […] Images were captured with a fluorescence microscope (Zeiss Axiovert 40 CFL). Quantification of % dead bacteria (out of total bacteria in field) is shown at the bottom. […] S. aureus-associated CRAMP fluorescence was analyzed by flow cytometry. […]

## 6-O-desulfated HP [6ODS-HP]
CRAMP [1]
  Inhibition of S. aureus killing by CRAMP: did not alter the ability of HP to significantly inhibit
LL-37
  Inhibition of S. aureus killing by LL-37: did not alter the ability of HP to significantly inhibit
CAP-18
  Inhibition of S. aureus killing by CAP-18: did not alter the ability of HP to significantly inhibit
SMAP-29
  Inhibition of S. aureus killing by SMAP-29: did not alter the ability of HP to significantly inhibit
CRAMP [2]
  Inhibition of CRAMP binding to HP beads: over 75%

## CC[C@H](C)[C@H](NC(=O)[C@H](CCCCN)NC(=O)[C@H](CCC(=O)O)NC(=O)[C@H](CCCCN)NC(=O)[C@H](CO)NC(=O)[C@H](CCCCN)NC(=O)[C@H](CCCNC(=N)N)NC(=O)[C@H](Cc1ccccc1)NC(=O)[C@H](Cc1ccccc1)NC(=O)[C@H](CC(=O)O)NC(=O)CNC(=O)[C@H](CC(C)C)NC(=O)[C@@H](N)CC(C)C)C(=O)NCC(=O)N[C@@H](CCCCN)C(=O)N[C@@H](CCC(=O)O)C(=O)N[C@@H](Cc1ccccc1)C(=O)N[C@@H](CCCCN)C(=O)N[C@@H](CCCNC(=N)N)C(=O)N[C@H](C(=O)N[C@H](C(=O)N[C@@H](CCC(N)=O)C(=O)N[C@@H](CCCNC(=N)N)C(=O)N[C@H](C(=O)N[C@@H](CCCCN)C(=O)N[C@@H](CC(=O)O)C(=O)N[C@@H](Cc1ccccc1)C(=O)N[C@@H](CC(C)C)C(=O)N[C@@H](CCCNC(=N)N)C(=O)N[C@@H](CC(N)=O)C(=O)N[C@@H](CC(C)C)C(=O)N[C@H](C(=O)N1CCC[C@H]1C(=O)N[C@@H](CCCNC(=N)N)C(=O)N[C@H](C(=O)N[C@@H](CCC(=O)O)C(=O)N[C@@H](CO)C(=O)O)[C@@H](C)O)C(C)C)[C@@H](C)CC)C(C)C)[C@@H](C)CC [LL-37]
S. aureus USA300 [3]; 1 μM peptide
  S. aureus killed: Greater than 98%
[4]
  pI: 10.5

## CAP-18
S. aureus USA300 [3]; 0.5 μM peptide
  S. aureus killed: Greater than 98%
[4]
  pI: 11.9

## N-desulfated HP [NDS-HP]
CRAMP [1]
  Inhibition of S. aureus killing by CRAMP: did not alter the ability of HP to significantly inhibit
LL-37
  Inhibition of S. aureus killing by LL-37: did not alter the ability of HP to significantly inhibit
CAP-18
  Inhibition of S. aureus killing by CAP-18: did not alter the ability of HP to significantly inhibit
SMAP-29
  Inhibition of S. aureus killing by SMAP-29: did not alter the ability of HP to significantly inhibit
CRAMP [2]
  Inhibition of CRAMP binding to HP beads: over 75%
CRAMP [5]
  Reduction of proportion of CRAMP-bound bacteria (Alexa CRAMP binding, FACS density plots) compared to No GAG: approximately 65%

## chondroitin sulfate A [CS]
CRAMP [1]
  Inhibition of S. aureus killing by CRAMP: no significant effect
LL-37
  Inhibition of S. aureus killing by LL-37: no significant effect
CAP-18
  Inhibition of S. aureus killing by CAP-18: no significant effect
SMAP-29
  Inhibition of S. aureus killing by SMAP-29: no significant effect
CRAMP [5]
  Decrease of MFI of Alexa-labeled CRAMP binding to S. aureus compared to control: no effect
  Reduction of proportion of CRAMP-bound bacteria (Alexa CRAMP binding, FACS density plots) compared to No GAG: not

## dermatan sulfate [DS]
CRAMP [1]
  Inhibition of S. aureus killing by CRAMP: did not inhibit
LL-37
  Inhibition of S. aureus killing by LL-37: 27%
CAP-18
  Inhibition of S. aureus killing by CAP-18: 21%
SMAP-29
  Inhibition of S. aureus killing by SMAP-29: did not inhibit
CRAMP [5]
  Decrease of MFI of Alexa-labeled CRAMP binding to S. aureus compared to control: no effect
  Reduction of proportion of CRAMP-bound bacteria (Alexa CRAMP binding, FACS density plots) compared to No GAG: not

## heparan sulfate [HS]
CRAMP [1]; 5 μg/mL (~0.5 μM) HS, 500 cfu USA300, 2 h at 37°C, n = 5
  Inhibition of bacterial killing by CRAMP, titration study: significantly inhibited
CRAMP [1]
  Inhibition of S. aureus killing by CRAMP: over 70%
LL-37
  Inhibition of S. aureus killing by LL-37: over 70%
CAP-18
  Inhibition of S. aureus killing by CAP-18: over 70%
SMAP-29
  Inhibition of S. aureus killing by SMAP-29: over 70%
S. aureus USA300 [6]
  Inhibition of bacterial killing by cathelicidins after pre-incubation with bacteria and washing away: did not inhibit

## heparosan
CRAMP [1]
  Inhibition of S. aureus killing by CRAMP: minimal effect
LL-37
  Inhibition of S. aureus killing by LL-37: minimal effect
CAP-18
  Inhibition of S. aureus killing by CAP-18: minimal effect
SMAP-29
  Inhibition of S. aureus killing by SMAP-29: minimal effect
